# According to ChEMBL document CHEMBL3872213, “Synthesis and biological activity of furoxan derivatives against Mycobacterium tuberculosis” (Eur J Med Chem, 2016):
# Tests used:
# [1] = test system: Mycobacterium tuberculosis; assay: Antitubercular activity against clinical isolates of isoniazid/rifampicin/streptomycin/ethambutal resistant Mycobacterium tuberculosis after 7 days by REMA method; type: functional; conditions: 168 h
# [2] = test system: Mycobacterium tuberculosis; assay: Antitubercular activity against multi-drug resistant Mycobacterium tuberculosis; type: functional
smiles,measurement,setting,value
O=C(N/N=C/c1ccccc1Oc1no[n+]([O-])c1S(=O)(=O)c1ccccc1)c1ccncc1,MIC90,[1],50 µM
O=C(N/N=C/c1ccc(Oc2no[n+]([O-])c2S(=O)(=O)c2ccccc2)cc1)c1ccncc1,MIC90,[1],7 µM
O=C(N/N=C/c1ccc(O)cc1)c1ccncc1,MIC90,[2],> 62 µM
O=C(N/N=C/c1cccc(Oc2no[n+]([O-])c2S(=O)(=O)c2ccccc2)c1)c1ccncc1,MIC90,[1],21.3 µM
O=C(N/N=C/c1ccc(Oc2no[n+]([O-])c2-c2ccccc2)cc1)c1ccncc1,MIC90,[1],24.3 µM
